The values that follow come from patent US10231973B2, “Salts of quinazoline derivative and method for preparing the same” (CHIA TAI TIANQING PHARMACEUTICAL GROUP CO., LTD., priority 2015, dated 2019).

A short description of series [1]: Bioavailability test, oral suspensions in beagle dogs. Particulars: oral suspension in CMC-Na, 5 mg/kg (as compound of Formula I); for Cmax: plasma concentration of compound of Formula I by LC-MS; for AUC0-t: sampling to 48 h. In kind it is in vivo. As for the experimental part: Study procedure: Fifteen beagle dogs (7.4˜9.4 kg body weight) were randomly divided into 5 groups, and administered orally suspensions of the compound of Formula I, the maleate, citrate, oxalate and acetate thereof (calculated according to the amount of the compound of Formula I) in CMC-Na (carboxymethylcellulose sodium) at a dosage of 5 mg/kg body weight, respectively.
Chromatographic conditions: methanol as mobile phase A and a 0.1% (v/v) aqueous solution of formic acid as mobile phase B, an isocratic elution A:B=52:48; 0.2 mL/min of a flow rate; 35° C. of column temperature; and SHIMADZU Shim-pack VP-ODS C18 (5.0 μm, 150 mm×2.0 mm I.D., Shimadzu Corporation) as chromatographic column.
Mass spectrometry conditions: ion source: ESI ionization source, scanning in SIM mode, 250° C. of curved desolventizer (CDL) temperature, 200° C. of heating block temperature; 25V of CDL voltage; +1.60 kV of detection voltage; 1.5 L/min of atomization gas flow rate; 2.0 L/min of dry gas flow rate.

The test system of series [2] is BT474, a human breast cancer cell line. Put plainly: Anchorage-independent cell proliferation assay, BT474. The conditions noted are these: BT-474, 168 h, soft agarose, 7 days treatment, CellTiter-Blue. Type of series: cell-based. The procedure:
(§1) NCI-H1975, a human non-small cell lung cancer cell, and BT474, a human breast cancer cell line, were cultured in RPIM-1640 or DMEM culture medium supplemented with 10% fetal bovine serum (FBS) in a cell incubator (37° C., 5% CO2). In the test of the compound, culture plates were pre-coated with 0.6% medium, and the cells were resuspended with 0.3% low-melting-point agarose, and then seeded in a 96-well plate at a density of 10,000 cells per well (100 μL). The compound was diluted at a 3-fold gradient, starting from 10 mM. For each of concentration, 2 μL of the solution was taken, and added to 98 μL of culture medium, and then 5.3 μL of the mixture was added to the cell culture medium (0.1% of DMSO final concentration, v/v). After the treatment for one week (7 days), 20 μL of CellTiter-Blue® (Promega) reagent was added, and incubated at 37° C. for 4 hours. Fluorescence signals were read on Envison (Perkin Elmer), and IC50 values of the compound for inhibiting cell proliferation were calculated using GraphPad Prism 5.0.
Background: Resazurin is reduced to fluorescent resorufin, in cell work by metabolically active cells.

In series [3] the test system is NCI-H1975, a human non-small cell lung cancer cell. Put plainly: Anchorage-independent cell proliferation assay, NCI-H1975. In kind it is cell-based. The conditions noted are these: NCI-H1975, 168 h, soft agarose, 7 days treatment, CellTiter-Blue. The procedure:
as §1

Where two headings read alike, the source gives them in different places.

Take `CC(=O)O` [Acetate]: in series [1] (plasma), the CL/F stood at 55.2 mL/min/kg; the T1/2 was found to be 9.41 h; the Tmax (as a rule, the time from dosing to the highest level) was determined as 3.33 h; the AUC0-t was determined as 20350 ng·h/mL. The Cmax (as a rule, the peak of the concentration-time curve) in series [1] amounted to 2080 ng/mL.
Regarding Citrate, in series [1] (plasma), the CL/F stood at 72 mL/min/kg, the T1/2 came out at 4.48 h, the Tmax is 1.33 h and the AUC0-t is 10760 ng·h/mL. In series [1], this molecule gave a Cmax of 1290 ng/mL.
The matching figures for Oxalate: 23.2 mL/min/kg, 9.38 h, 1.50 h, 53200 ng·h/mL and 3590 ng/mL.
On to `C=CC(=O)N1CCC(Nc2cc3c(Nc4ccc(F)c(Cl)c4)ncnc3cc2OC)CC1` [Example 1, N^6-(1-acryloylpiperidin-4-yl)-N^4-(3-chloro-4-fluorophenyl)-7-methoxyquinazoline-4,6-diamine], for which, in series [1] (dog, plasma), the Vd/F (as a rule, the volume of distribution divided by bioavailability) was 0.78 ± 1.08 L/kg and the half-life (usually the time in which the quantity being followed falls by half) was 5.13 ± 2.85 h. For the same molecule, the Cmax in series [1] (dog, read-out: Cmax) was determined as 2820 ± 2830 ng/mL. For the same molecule, in series [1] (dog, plasma, read-out: CL/F (converted)), the CL/F is 77.8 mL/min/kg. In addition, in series [1] (dog, plasma, read-out: Tmax), the Tmax was found to be 3.17 ± 4.19 h. Besides, the AUC0-t in series [1] (dog, plasma, read-out: AUC0-t) came out at 42100 ng·h/mL. The IC50 (commonly the concentration that gives 50% inhibition) in series [2] is 2.1 nM. This molecule also registered an IC50 in series [3] of 14 nM.
